Columns and labels:
Assay type in all cases: cell-based
U266 = test: Cell growth inhibition assay, blood cancer cell line U266; details: Homo sapiens, U-266 blood cancer cell line
Experimental: (§1) The inhibitory effects of the compounds of the present invention against the growth of cancer cells were evaluated as shown below. The cancer cell lines including stomach cancer cell line (AGS), breast cancer cell lines (MDA-MB-231, MDA-MB-468, and BT-549), prostate cancer cell lines (LNCaP and DU-145), colon cancer cell line (HCT116), ovarian cancer cell line (SW626), liver cancer cell line (Hep3B), kidney cancer cell line (ACHN), lung cancer cell line (NCI-H23) and blood cancer cell lines (HEL92.1.7 and U266) were cultured under the protocol provided by each supplier. A medium supplemented with 10 ng/mL of IL-6 was used for LNCaP, a prostate cancer cell line, when treated with a drug. Each type of cells to be used in experiments were sub-cultured in a 96-well plate by counting the exact number of cells using Tali™ Image-based Cytometer (Life Technologies). In a 96-well plate, AGS, HCT116, and DU-145 were employed with 3,000 cells/well; NCI-H23, SW626, Hep3B, ACHN, BT-549, MDA-MB-231, HEL92.1.7, and U266 were employed with 5,000 cells/well; and LNCaP and MDA-MB-468 were employed with 10,000 cells/well. The cells were treated with the compounds listed in Examples which were diluted in various concentrations. Upon completion of the compounds treatment, AGS, HCT116, SW626, DU145, NCI-H23, Hep3B, ACHN, BT-549, LNCaP, HEL92.1.7, and U266 cells were cultured at 37° C. under 5% CO2 for from 72 to 96 hours, and MDA-MB-231 and MDA-MB-468 cells were cultured at 37° C. in air for from 72 to 96 hours. Subsequently, the cells were observed under microscope and drug precipitation and particular findings were investigated and recorded. And then, the 96-well plate was placed at room temperature for 30 minutes, added with 20 μL/well of CellTiter-Glo solution (Cat No. G7573, Promega) and shaken for 10 minutes, followed by being subjected to the measurement using PHERAstar™ microplate reader (BMG LABTECH) according to the supplier's general luminometer protocol. Wells where only culture liquid added without cell plating were used as a negative control, whereas wells where culture liquid containing 0.1% DMSO instead of the compounds listed in Examples were used as a positive control.

HCT116 = test: Cell growth inhibition assay, colon cancer cell line HCT116; details: Homo sapiens, HCT-116 colon cancer cell line
Experimental: as §1, with “Wells where only culture liquid added without cell plating were used as a negative control, whereas wells where culture liquid containing 0.1% DMSO instead of the compounds listed in Examples were used as a positive control.” left out

MDA-MB-231 = test: Cell growth inhibition assay, breast cancer cell line MDA-MB-231; details: Homo sapiens; MDA-MB-231 breast cancer cell line, 5,000 cells/well
BT-549 = test: Cell growth inhibition assay, breast cancer cell line BT-549; details: Homo sapiens, BT-549 breast cancer cell line
Experimental: as §1

AGS = test: Cell growth inhibition assay, stomach cancer cell line AGS; details: Homo sapiens; AGS stomach cancer cell line, 3,000 cells/well
SW626 = test: Cell growth inhibition assay, ovarian cancer cell line SW626; details: Homo sapiens
Experimental: as §1, with “Wells where only culture liquid added without cell plating were used as a negative control, whereas wells where culture liquid containing 0.1% DMSO instead of the compounds listed in Examples were used as a positive control.” left out

STAT3 = biological target: T1, STAT3 (Homo sapiens, UniProt P40763); test: STAT3 reporter gene assay (luciferase), LNCaP stable cell line (pSTAT3-TA-luc), IL-6 stimulation
T1 construct: plasmid pSTAT3-TA-luc), which contains a stably operating STAT3 promoter; endogenous in cells
T1 sequence (P40763 whole entry): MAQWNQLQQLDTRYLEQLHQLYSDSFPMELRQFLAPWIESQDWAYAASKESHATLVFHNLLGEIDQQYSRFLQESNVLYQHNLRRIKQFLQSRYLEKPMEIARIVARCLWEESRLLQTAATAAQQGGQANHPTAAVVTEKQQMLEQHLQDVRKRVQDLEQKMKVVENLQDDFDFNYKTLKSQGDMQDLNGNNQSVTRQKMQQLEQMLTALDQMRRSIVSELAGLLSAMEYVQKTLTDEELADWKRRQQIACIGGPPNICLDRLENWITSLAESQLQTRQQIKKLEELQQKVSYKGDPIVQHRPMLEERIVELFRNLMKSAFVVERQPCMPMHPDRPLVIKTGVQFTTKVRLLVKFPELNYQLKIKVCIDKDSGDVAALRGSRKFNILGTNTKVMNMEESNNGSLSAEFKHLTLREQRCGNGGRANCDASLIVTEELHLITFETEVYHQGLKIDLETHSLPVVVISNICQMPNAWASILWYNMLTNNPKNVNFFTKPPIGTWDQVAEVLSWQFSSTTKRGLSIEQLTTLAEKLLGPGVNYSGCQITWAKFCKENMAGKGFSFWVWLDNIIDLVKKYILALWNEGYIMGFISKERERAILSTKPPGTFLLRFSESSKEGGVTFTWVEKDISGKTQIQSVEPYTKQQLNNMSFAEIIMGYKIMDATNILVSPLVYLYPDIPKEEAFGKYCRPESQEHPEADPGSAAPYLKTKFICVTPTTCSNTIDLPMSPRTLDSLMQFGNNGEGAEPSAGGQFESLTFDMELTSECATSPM
Summary of the method: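 LNCaP cells stably carrying pSTAT3-TA-luc, in RPMI1640 with 3% DCC-FBS, were treated with compound and then stimulated with 10 ng/mL IL-6 for 24–48 h at 37 °C. Luciferase activity was measured in lysates. A parallel plate measured viability by CellTiter-Glo, with stimulated 0.1% DMSO wells as the positive control.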

ACHN = test: Cell growth inhibition assay, kidney cancer cell line ACHN; details: Homo sapiens
Experimental: as §1, with “Wells where only culture liquid added without cell plating were used as a negative control, whereas wells where culture liquid containing 0.1% DMSO instead of the compounds listed in Examples were used as a positive control.” left out

HEL92.1.7 = test: Cell growth inhibition assay, blood cancer cell line HEL92.1.7; details: Homo sapiens, HEL 92.1.7, HEL92.1.7 blood cancer cell line
Summary of the method: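 Cells were seeded at 3,000/well (HCT116, DU-145) or 5,000/well (SW626 and the others) and exposed to serial compound dilutions for 72 to 96 h at 37 °C under 5% CO2. Viability was read as CellTiter-Glo luminescence against 0.1% DMSO and cell-free wells.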

Hep3B = test: Cell growth inhibition assay, liver cancer cell line Hep3B; details: Homo sapiens
Experimental: as §1

LNCaP = test: Cell growth inhibition assay, prostate cancer cell line LNCaP (medium with 10 ng/mL IL-6); details: Homo sapiens, medium supplemented with 10 ng/mL of IL-6, 10,000 cells/well
NCI-H23 = test: Cell growth inhibition assay, lung cancer cell line NCI-H23; details: Homo sapiens
Experimental: as §1, with “Wells where only culture liquid added without cell plating were used as a negative control, whereas wells where culture liquid containing 0.1% DMSO instead of the compounds listed in Examples were used as a positive control.” left out

DU-145 = test: Cell growth inhibition assay, prostate cancer cell line DU-145; details: Homo sapiens, DU-145 prostate cancer cell line
Summary of the method: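 Cancer cells, counted and seeded at 3,000 (DU-145, HCT116) or 5,000 (SW626) cells/well, received graded compound concentrations. Plates incubated 72–96 h at 37° C. with 5% CO2 were then assayed with CellTiter-Glo.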

MDA-MB-468 = test: Cell growth inhibition assay, breast cancer cell line MDA-MB-468; details: Homo sapiens, MDA-MB-468 breast cancer cell line
Experimental: as §1

SW1417 = test: Cell growth inhibition assay, cell line SW1417; details: Homo sapiens, SW1417 cells
HCC1500 = test: Cell growth inhibition assay, cell line HCC1500; details: HCC1500 cells
C-33A = test: Cell growth inhibition assay, cell line C-33A; details: Homo sapiens, C-33A cells
NCI-H661 = test: Cell growth inhibition assay, cell line NCI-H661; details: Homo sapiens, NCI-H661 cells
Raji = test: Cell growth inhibition assay, cell line Raji; details: Homo sapiens, Raji cells
IM-9 = test: Cell growth inhibition assay, cell line IM-9; details: Homo sapiens, IM-9 cells
MDA-MB-361 = test: Cell growth inhibition assay, cell line MDA-MB-361; details: Homo sapiens, MDA-MB-361 cells
NCI-H508 = test: Cell growth inhibition assay, cell line NCI-H508; details: Homo sapiens, NCI-H508 cells
NCI-H1650 = test: Cell growth inhibition assay, cell line NCI-H1650; details: Homo sapiens, NCI-H1650 cells

Row | IC50 (U266) [µM] | IC50 (HCT116) [µM] | IC50 (MDA-MB-231) [µM] | IC50 (BT-549) [µM] | IC50 (SW626) [µM] | IC50 (STAT3) [µM] | IC50 (ACHN) [µM] | IC50 (HEL92.1.7) [µM] | IC50 (Hep3B) [µM] | IC50 (LNCaP) [µM] | IC50 (NCI-H23) [µM] | IC50 (DU-145) [µM] | IC50 (MDA-MB-468) [µM] | Compound | also measured
1 | 0.25 | 0.31 | 0.025 | 0.26 | 0.066 | 0.112 | 0.004 | 0.14 | 2.1 | 0.48 | 0.3 | 0.024 | 0.02 | COc1cc(OC(F)(F)F)cc(C(C)(C)c2cc(Br)cc(NC(=O)c3cc4ccc(NS(C)(=O)=O)cc4[nH]3)c2)c1 [Example 16, N-(3-bromo-5-(2-(3-methoxy-5-(trifluoromethoxy)phenyl)propan-2-yl)phenyl)-6-(methylsulfonamido)-1H-indole-2-carboxamide] | IC50 (AGS): 0.044 µM
2 | 0.29 | – | 0.007 | 3.4 | – | 0.051 | – | 0.2 | 0.028 | 0.24 | – | 0.023 | < 0.00064 | COc1cc(NC(=O)c2cc3cc(NS(C)(=O)=O)ccc3s2)cc(C(C)(C)c2cc(OC)cc(OC(F)(F)F)c2)c1 [Example 34, N-(3-methoxy-5-(2-(3-methoxy-5-(trifluoromethoxy)phenyl)propan-2-yl)phenyl)-5-(methylsulfonamido)benzo[b]thiophene-2-carboxamide] | –
3 | 0.019 | – | 0.041 | – | – | 0.011 | – | 0.024 | – | 0.019 | – | 0.006 | – | CC(C)Oc1cc(OC(F)(F)F)cc(C(C)(C)c2cc(Cl)cc(NC(=O)c3cc4cc(NS(C)(=O)=O)ccc4s3)c2)c1 [Example 68, N-(3-chloro-5-(2-(3-isopropoxy-5-(trifluoromethoxy)phenyl)propan-2-yl)phenyl)-5-(methylsulfonamido)benzo[b]thiophene-2-carboxamide] | –

Continued, molecule first:

Row | Compound | IC50 (U266) [µM] | IC50 (HCT116) [µM] | IC50 (MDA-MB-231) [µM] | IC50 (BT-549) [µM] | IC50 (SW626) [µM] | IC50 (STAT3) [µM] | IC50 (ACHN) [µM] | IC50 (HEL92.1.7) [µM] | IC50 (Hep3B) [µM] | IC50 (LNCaP) [µM] | IC50 (NCI-H23) [µM] | IC50 (DU-145) [µM] | IC50 (MDA-MB-468) [µM] | also measured
4 | COc1cc(OC(F)(F)F)cc(C(C)(C)c2cc(Br)cc(NC(=O)c3cc4cc(NS(C)(=O)=O)ccc4s3)c2)c1 [Example 36, N-(3-bromo-5-(2-(3-methoxy-5-(trifluoromethoxy)phenyl)propan-2-yl)phenyl)-5-(methylsulfonamido)benzo[b]thiophene-2-carboxamide] | 0.22 | < 0.072 | 0.005 | 0.043 | 0.013 | 0.027 | < 0.00085 | 0.27 | 2.2 | 0.21 | < 0.21 | 0.006 | < 0.0076 | IC50 (AGS): 0.009 µM
5 | CC(C)(c1cccc(CN2CCOCC2)c1)c1cc(Br)cc(NC(=O)c2cc3cc(NS(C)(=O)=O)ccc3s2)c1 [Example 50, N-(3-bromo-5-(2-(3-(morpholinomethyl)phenyl)propan-2-yl)phenyl)-5-(methylsulfonamido)benzo[b]thiophene-2-carboxamide] | 0.84 | – | 0.24 | – | – | 0.15 | – | 0.83 | – | 0.76 | – | 0.36 | – | –
6 | COc1cc(OC(F)(F)F)cc(C(C)(C)c2cc(Br)cc(NC(=O)c3cc4cnc(NS(C)(=O)=O)cc4[nH]3)c2)c1 [Example 98, N-(3-bromo-5-(2-(3-methoxy-5-(trifluoromethoxy)phenyl)propan-2-yl)phenyl)-6-(methylsulfonamido)-1H-pyrrolo[3,2-c]pyridine-2-carboxamide] | 0.56 | – | 0.59 | – | – | 0.098 | – | 0.86 | – | 0.76 | – | 0.31 | – | –
7 | CC(C)(C)OC(=O)N1CCN(Cc2cccc(C(C)(C)c3cc(Br)cc(NC(=O)c4cc5cc(NS(C)(=O)=O)ccc5s4)c3)c2)CC1 [Example 116, tert-butyl 4-(3-(2-(3-bromo-5-(5-(methylsulfonamido)benzo[b]thiophene-2-carboxamido)phenyl)propan-2-yl)benzyl)piperazine-1-carboxylate] | 0.16 | – | 0.055 | – | – | 0.053 | – | 0.13 | – | 0.22 | – | 0.058 | – | –
8 | CN(c1ccc2cc(C(=O)Nc3cccc(-c4ccccc4C(F)(F)F)c3)[nH]c2c1)S(C)(=O)=O [Example 346, 6-(N-methylmethylsulfonamido)-N-(2′-(trifluoromethyl)-[1,1′-biphenyl]-3-yl)-1H-indole-2-carboxamide] | – | 1.5 | 0.18 | 1 | 0.29 | 0.2 | 0.37 | 1.3 | 2.2 | 0.463 | 1.7 | 0.37 | 0.14 | IC50 (SW1417): 0.35 µM; IC50 (HCC1500): 1.03 µM; IC50 (C-33A): 0.3 µM; IC50 (NCI-H661): 0.09 µM; IC50 (Raji): 0.57 µM; IC50 (IM-9): 0.51 µM; IC50 (MDA-MB-361): 0.28 µM; IC50 (NCI-H508): 0.22 µM; IC50 (NCI-H1650): 0.62 µM

Reference: patent publication US10562912B2 (C&C Research Laboratories, priority 2013, dated 2020)
